Test results published in patent publication US10925855B2, “Compositions comprising water dispersible nanoparticles of a retinoid compound” (GALDERMA RESEARCH & DEVELOPMENT, priority 2015, dated 2021).
Values after ≈ are worked out from the molar mass of the structure shown.

Experiment: Solvent screening (solubility of compound A)
Format: physicochemical
Settings: for solubility: thermodynamic from solid, Sonication
Procedure: 10-20 mg of 3″-tert-butyl-4′-(2-hydroxyethoxy)-4″-pyrrolidin-1-yl[1,1′;3′,1″]-terphenyl-4-carboxylic acid (hereinafter “compound A”) was placed into a 30 ml vial. 200 μl of the selected solvent was added and the vial was stirred by magnetic stirring. • If the compound A was not dissolved, the vial was placed into ultrasonic bath with mild heating. • If the compound A was still not dissolved, further 200 μl of the solvent was added to the vial and the magnetic stirring and ultrasonication were repeated.
The whole procedure (addition of the solvent, stirring, ultrasonication, heating) was repeated stepwise until every compound A particles was dissolved and a clear, translucent liquid was obtained.

In the case of `CC(C)(C)c1cc(-c2cc(-c3ccc(C(=O)O)cc3)ccc2OCCO)ccc1N1CCCC1` [Compound A, 3″-tert-butyl-4′-(2-hydroxyethoxy)-4″-pyrrolidin-1-yl[1,1′;3′,1″]-terphenyl-4-carboxylic acid], the “solubility profile (in words)” value (acetone) is reported as “slightly soluble”, the “solubility profile (in words)” value (acetonitrile) is reported as “very slightly soluble” and the “solubility profile (in words)” value (ethanol) is reported as “slightly soluble”. The “solubility profile (in words)” value (isopropanol) was “slightly soluble”, the “solubility profile (in words)” value (methanol) was “slightly soluble” and the solubility (organic solvent or mixture, Acetone, RT) was 3000 µg/mL (≈ 6.53 mM). It also gave a solubility (organic solvent or mixture, Acetonitrile, RT) of 400 µg/mL (≈ 0.87 mM), a solubility (organic solvent or mixture, Ethanol, RT) of 4900 µg/mL (≈ 10.7 mM) and a solubility (organic solvent or mixture, Isopropanol, RT) of 3000 µg/mL (≈ 6.53 mM). The solubility (organic solvent or mixture, Methanol, RT) was 1700 µg/mL (≈ 3.7 mM), the solubility (organic solvent or mixture, Pyridine, RT) was 34500 µg/mL (≈ 75.1 mM) and the solubility (organic solvent or mixture, Tetrahydrofuran, RT) was 30500 µg/mL (≈ 66.4 mM). For the same compound, the “solubility profile (in words)” value (pyridine) was “soluble”, the “solubility profile (in words)” value (tetrahydrofuran) was “soluble” and the solubility (Water, T = 45° C.) was under 50 µg/mL. The “solubility profile (in words)” value (water) was “practically insoluble”.
